Patent US20220204479A1, “PYRIMIDINE COMPOUND AND PREPARATION METHOD THEREFOR” (Wuhan Humanwell Innovative Drug Research And Development …, priority 2019, published 2022)
≈ marks a conversion by molar mass, not a printed value. Read-outs that look alike come from different tables or passages of the source.

Tests used:
[1] = Pharmacokinetic test in mice; assay type: in vivo; details: mouse, plasma; male CD-1 mice, oral gavage 10 mg/kg
Experimental: (§1) For the pharmacokinetic test of mice, male CD-1 mice (20 g to 25 g) were used, and fasted overnight. The mice were orally administered by gavage (10 mg/kg). […] The blood samples were centrifuged at 8,000 rpm at 4° C. for 6 min, and plasma was collected and stored at −20° C. The plasma at each time point was taken and added with an acetonitrile solution containing internal standard in 3 to 5 times the amount, vortexed and mixed for 1 min, and centrifuged at 13,000 rpm at 4° C. for 10 min. The supernatant was collected, added with water in 3 times the amount, and mixed. An appropriate amount of the mixture was taken for LC-MS/MS analysis. The main pharmacokinetic parameters were analyzed using WinNonlin 7.0 software with non-compartmental model.

[2] = biological target: T1, ATX enzyme in rat plasma (Rattus norvegicus, UniProt Q64610); assay: Inhibition of activity of ATX enzyme in rat plasma (LPA18:2 formation, LC-MSMS); assay type: biochemical; details: for inhibitory activity on ATX enzyme in rat plasma compared with control compounds 1 and 2: comparison in words
T1 construct: Whole blood was collected from rats and anticoagulated with heparin; from tissue; host or cells: rat plasma (heparin)
Experimental: Whole blood was collected from rats and anticoagulated with heparin. The blood collection tubes were centrifuged at 3,000 rpm for 15 min, and the plasma was placed on ice for use.
The compound was serially diluted with DMSO: 30% ACN=1:19 according to the conventional concentration requirements, and then placed on ice. 147 μL of plasma, which was placed on ice, was added to a 96-well plate, and then 3 μL of each of the gradient solutions of the compound (finally 1[…] DMSO) was added. A group containing none of the compounds was set as the positive group. The 96-well plate was mixed uniformly, and incubated at 37° C. for 3 h. In addition, a blank group was also provided. At the beginning of the incubation, the plasma of blank group was added to with excessive acetonitrile containing the internal standard LPA17: 0 to precipitate the plasma protein, vortexed to mix, and stored at 4° C. The blank group was provided to determine the baseline concentration of endogenous LPA.
A peak area of LPA18: 2 and a peak area of internal standard LPA17: 0 were detected using LC-MSMS mass spectrometry.
(§2) A ratio of the peak area of LPA18: 2 to the peak area of internal standard LPA17: 0 was calculated, and a formation inhibition rate of LPA18: 2 was calculated according to the following formula:
(§3) Inhibition rate (%)=100−(compound group with different concentrations−blank group)/(positive group−blank group)*100
According to the inhibition rates of different concentrations of the compound, the IC50 value of the compound for inhibiting activity of ATX enzyme in rat plasma, was calculated.

[3] = Human liver microsome stability test; details: for Remaining percentage (%) of compound after incubation for 30 min: NADPH, 37° C.; for half-life at 1 µM: human
Experimental: The human liver microsome stability test was performed by incubating the compound and human liver microsomes in vitro for detection. First, the test compound was prepared into a 10 mM stock solution in DMSO solvent, and then the compound was diluted to 0.5 mM with acetonitrile. Human liver microsomes (Corning) were diluted with PBS and prepared as a microsome/buffer solution, which was used to dilute the 0.5 mM compound solution into a working solution. […] A deep-well multi-well plate was taken, 30 μL of the working solution and 15 μL of pre-warmed NADPH solution (6 mM) were sequentially added to each well to initiate a reaction, and the reaction was incubated at 37° C. […] After centrifugation, the supernatant was collected, and added with purified water in a ratio of 1:1 to perform LC-MS/MS detection. […] T1/2 was calculated by using Excel.

[4] = biological target: T2, autotaxin (ATX) enzyme (Homo sapiens, UniProt Q13822); assay: Autotaxin (ATX) enzyme activity inhibition test (Cayman Autotaxin Inhibitor Screening Assay Kit); assay type: biochemical; details: 37° C., 30 min, OD405, read-out: IC50, inhibitory effect on ATX enzyme activity
T2 construct: purchased Cayman 700580
Experimental: The inhibitory effects of the compounds on the autotaxin enzyme were detected using the Autotaxin Inhibitor Screening Assay Kit (Cayman, 700580). […] Subsequently, the 8 concentrations were diluted with Autotaxin Assay buffer (1×) provided in the kit into 19× compound working solutions (DMSO content was 1.9%). The Autotaxin Assay Reagent (10×) was taken out and diluted by 10 times with Autotaxin Assay Buffer (1×). The Autotaxin Substrate was taken out, dissolved by adding 1.2 mL of Autotaxin Assay Buffer (1×), mixed evenly and let stand by at room temperature. In a 96-well plate, 150 μL of Autotaxin Assay Buffer (1×), 10 μL of the prepared and diluted 19× compound working solution, 10 μL of Autotaxin Assay Reagent (1×), and 20 μL of the dissolved Autotaxin Substrate were added to each of the wells for each concentration, and homogenously mixed. The 96-well plate was shaken in a constant temperature shaker at 37° C. and incubated in the dark for 30 min, and then the plate was taken out and placed on a microplate reader to read OD405.

[5] = Pharmacokinetic test in rats; assay type: in vivo; details: male SD rats, oral gavage 10 mg/kg
Experimental: as §1, with “rats, 3” for “mice,”, “SD rats (180-240” for “CD-1 mice (20 g to 25”, “rats” for “mice”

[6] = biological target: T3, ATX enzyme in human plasma (Homo sapiens, UniProt Q13822); assay: Inhibition of activity of ATX enzyme in human plasma (LPA18:2 formation, LC-MSMS); assay type: biochemical; details: for inhibitory effect on ATX enzyme in human plasma compared with control compounds 1 and 2: comparison in words; for IC50: human plasma, 37° C., 3 h, LPA18:2 formation, read-out: IC50, inhibitory effect on activity of ATX enzyme in human plasma
T3 construct: Whole blood was collected from healthy volunteers and anticoagulated with heparin; from tissue; host or cells: human plasma (heparin) from healthy volunteers
Experimental: Whole blood was collected from healthy volunteers and anticoagulated with heparin. The blood collection tubes were centrifuged at 3,000 rpm for 10 min, and the plasma was taken and stored at −80° C. for use.
The compound was serially diluted with DMSO according to the conventional concentration requirements, then 3 μL of each of the diluted compound solutions was added to a 96-well plate, and 147 μL of PBS was added to each well containing 3 μL of the compound solution. After mixing homogenously, 50 μL of the mixture was taken out and added to a new 96-well plate. The human plasma was taken out from the −80° C. refrigerator and thawed through rapid shaking in a 37° C. water bath. 50 μL of the human plasma was taken and added to the 96-well plate containing 50 μL of the diluted compound (the final system contained 1% DMSO). The group without the compound was set as the positive group. The 96-well plate was shaken and mixed uniformly, and incubated at 37° C. for 3 h. A blank group was also provided, and the plasma of the blank group was stored at −80° C. The blank group is provided to determine the baseline concentration of endogenous LPA.
After the incubation was finished, the blank group was thawed on ice and transferred to an incubation plate. Excess acetonitrile containing the internal standard LPA17: 0 was added to the incubation plate to precipitate the plasma protein. After vortex centrifugation, the supernatant was taken and diluted, and a peak area of LPA18: 2 and a peak area of internal standard LPA17: 0 were detected using LC-MSMS mass spectrometry.
as §2, §3
According to the inhibition rates of different concentrations of the compound, the IC50 value of the compound for inhibiting activity of ATX enzyme in human plasma was calculated.

[7] = Pharmacokinetic test in canines; assay type: in vivo; details: dog, plasma; male beagle dogs, oral gavage 5 mg/kg
Experimental: as §1, with “rats, 3” for “mice,”, “SD rats (180-240” for “CD-1 mice (20 g to 25”, “rats” for “mice”
For the pharmacokinetics test of canines, 3 male beagle dogs (8 to 10 kg) were used, and fasted overnight. The dogs were orally administered by gavage (5 mg/kg). The rest of the operation is the same as the pharmacokinetic test in rats.

[8] = biological target: T4, hERG channels (CHO cell line stably expressing hERG) (Homo sapiens, UniProt Q12809); assay: cell-based
Experimental: (§4) Full-automatic electrophysiological patch clamp QPatch was used to detect the inhibitory effect of compounds on hERG. Cells used in this test were CHO cell line transfected with cDNA of hERG and stably expressing hERG channels (provided by Sophion Bioscience, Denmark), and the cell passage number was P24. The cells were cultured in a medium containing the following components (all purchased from Invitrogen): Ham's F12 medium, inactivated fetal bovine serum (10% (v/v)), hygromycin B (100 μg/ml), and Geneticin (100 μg/ml). CHO hERG cells were grown in a petri dish containing the above-mentioned medium and cultured in an incubator at 37° C. and containing 5% CO2.
(§5) The test compound was prepared into a 10 mM stock solution in DMSO solvent, the compound was diluted to 3 mM, 1 mM, 0.3 mM, and 0.1 mM with DMSO, and then the compound was diluted to 30 μM, 10 μM, 3 μM, 1 μM, 0.3 μM and 0.1 μM with the extracellular fluid, so that except that the final concentration of DMSO in the 30 μM compound was 0.3%, the final concentration of DMSO in compound solutions of all other concentrations was 0.10%.
(§6) The CHO hERG cells, after being digested and resuspended, were added to the full-automatic QPatch system (Sophion, Denmark), and subjected to a test according to the following preset procedure.
(§7) After reaching the ruptured whole cell configuration state in the initial stage, the whole cell current was recorded at room temperature (about 25° C.) for at least 120 seconds in order to achieve stability. The stable cells were selected for the test. During the whole test, the cells were clamped at a voltage of −80 mV, the cell clamp voltage was depolarized to +20 mV to activate the hERG potassium channels, and after 2.5 seconds, the cell clamp voltage was at −50 mV to eliminate inactivation and generate outward tail current. The peak tail current was used as the value of the hERG current. The voltage mode described above was applied to the cells for electrophysiological test every 15 seconds. An intracellular liquid containing 0.1% dimethyl sulfoxide (solvent) was added to the cells to establish a baseline, and then the current was allowed to stabilize for 3 min. After the compound solution was added, the cells were kept in the test environment until the effect of the compound reached a steady state or until reaching 4 min. In the test experiments with different concentration gradients of the compound, the compound was added from low to high concentration to the clamped cells. After the compound test was finished, the cells were washed with the extracellular fluid until the current returned to a stable state. The test data was analyzed by Qpatch analysis software provided by Sophion, Excel, and Graphpad Prism, etc.

[9] = biological target: T4, hERG channels (CHO cell line stably expressing hERG); assay: Inhibitory effect on hERG by full-automatic electrophysiological patch clamp QPatch; details: hERG IC50 (μM) divided by ATX enzyme IC50 (nM)
Experimental: as §4, §5, §6, §7

[10] = cited from earlier work; for probability of discontinuation due to serious adverse events: patients taking the drug
[11] = Thermodynamic solubility test; assay type: physicochemical; details: thermodynamic from solid
Experimental: The compound was accurately weighed, and the prepared phosphate buffer (pH 7.4), FeSSIF solution (pH 5.8) and FaSSGF solution (pH 1.6) were added to prepare a solution with a concentration of 4 mg/mL, which was shaken at 1,000 rpm for 1 hour, and then incubated overnight at room temperature. After the incubation, the solution was centrifuged at 12,000 rpm for 10 min to remove undissolved particles, and the supernatant was transferred to a new centrifuge tube. The supernatant was diluted appropriately, then added with an acetonitrile solution containing the internal standard, and quantified using a standard curve prepared with the same matrix.

[12] = rat plasma, 37° C., 3 h, LPA18:2 formation, read-out: IC50, inhibitory effect on activity of ATX enzyme in rat plasma

T4 sequence (Q12809 whole entry): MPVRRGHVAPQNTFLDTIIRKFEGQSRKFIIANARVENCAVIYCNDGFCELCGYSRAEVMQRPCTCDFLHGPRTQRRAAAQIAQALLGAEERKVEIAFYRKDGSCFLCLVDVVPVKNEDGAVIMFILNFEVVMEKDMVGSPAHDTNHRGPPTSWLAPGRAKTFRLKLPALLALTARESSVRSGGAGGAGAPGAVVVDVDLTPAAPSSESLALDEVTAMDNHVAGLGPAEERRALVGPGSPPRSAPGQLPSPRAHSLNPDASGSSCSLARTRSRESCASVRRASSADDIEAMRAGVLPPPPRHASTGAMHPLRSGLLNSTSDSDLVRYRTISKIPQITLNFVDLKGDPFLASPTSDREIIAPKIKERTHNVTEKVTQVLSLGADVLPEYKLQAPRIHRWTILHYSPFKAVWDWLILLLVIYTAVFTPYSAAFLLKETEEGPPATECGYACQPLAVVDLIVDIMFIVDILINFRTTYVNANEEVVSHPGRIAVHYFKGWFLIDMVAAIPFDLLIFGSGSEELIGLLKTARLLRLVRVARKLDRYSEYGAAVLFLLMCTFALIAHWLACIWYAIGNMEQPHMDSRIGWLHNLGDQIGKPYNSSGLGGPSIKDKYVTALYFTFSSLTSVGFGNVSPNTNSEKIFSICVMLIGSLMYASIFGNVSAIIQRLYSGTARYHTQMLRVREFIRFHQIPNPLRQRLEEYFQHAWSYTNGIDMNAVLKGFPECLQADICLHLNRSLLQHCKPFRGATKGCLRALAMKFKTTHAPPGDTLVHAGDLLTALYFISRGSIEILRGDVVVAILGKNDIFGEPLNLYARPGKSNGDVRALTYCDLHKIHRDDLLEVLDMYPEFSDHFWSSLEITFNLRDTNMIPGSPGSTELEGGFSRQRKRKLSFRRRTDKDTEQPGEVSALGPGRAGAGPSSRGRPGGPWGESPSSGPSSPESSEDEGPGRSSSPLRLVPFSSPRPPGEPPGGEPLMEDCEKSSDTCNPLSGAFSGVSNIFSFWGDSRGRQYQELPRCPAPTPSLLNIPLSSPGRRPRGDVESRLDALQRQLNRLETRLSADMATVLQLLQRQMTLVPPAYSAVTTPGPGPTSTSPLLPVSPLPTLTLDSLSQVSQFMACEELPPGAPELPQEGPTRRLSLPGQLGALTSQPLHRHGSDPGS

`O=C(c1cnc(NC2Cc3ccccc3C2)nc1)N1CC2(CC(OCc3c[nH]nn3)C2)C1` [Compound I-9, (6-((1H-1,2,3-triazol-4-yl)methoxy)-2-azaspiro[3.3]heptan-2-yl)(2-((2,3-dihydro-1H-inden-2-yl)amino)pyrimidin-5-yl)methanone] showed an AUC(0-t) [1] of 4590 ng·h/mL, a Cmax [1] of 3870 ng/mL and a Tmax [1] of 19.8 min. The “inhibitory activity on ATX enzyme in rat plasma compared with control compounds 1 and 2” value [2] was “higher inhibitory activity on ATX enzyme in rat plasma than the control compounds 1 and 2”, the IC50 [2, 12] was 2.83 nM and the “Remaining percentage (%) of compound after incubation for 30 min” value (“Remaining percentage (%) of compound” below) ([3]; human liver microsomes) was 95.5%. For the same compound, the half-life at 1 µM ([3]; microsomes) was 242 min, the IC50 [4] was 1.43 nM and the Tmax ([5]; Sprague-Dawley, rat, in vivo) was 25.2 min. For the same compound, the AUC(0-t) ([5]; Sprague-Dawley, rat, in vivo, read-out: AUC0-t) was 1410 ng·h/mL, the Cmax ([5]; Sprague-Dawley, rat, in vivo, read-out: Cmax) was 973 ng/mL and the “inhibitory effect on ATX enzyme in human plasma compared with control compounds 1 and 2” value [6] was “higher inhibitory effect on ATX enzyme in human plasma than the control compounds 1 and 2”. It also gave an IC50 [6] of 2.74 nM, an AUC(0-t) [7] of 9410 ng·h/mL and a Cmax [7] of 2090 ng/mL. The Tmax [7] was 70.2 min, the IC50 [8] was 13400 nM and the “hERG IC50/ATX IC50” value [9] was 13.4/1.43 = 9.37.

In the case of `COC(=O)c1ccc2c(c1)NC(=O)/C2=C(\Nc1ccc(N(C)C(=O)CN2CCN(C)CC2)cc1)c1ccccc1` [Nintedanib], the “probability of discontinuation due to serious adverse events” value [10] is listed as 26.3% and the “incidence of gastrointestinal reactions” value ([10]; patients) is listed as ≤ 50%.

`O=C(c1cnc(NC2Cc3ccccc3C2)nc1)N1CCC(COCc2cn[nH]n2)CC1` [Compound I-1, (4-(((2H-1,2,3-triazol-4-yl)methoxy)methyl)piperidin-1-yl)(2-((2,3-dihydro-1H-inden-2-yl)amino)pyrimidin-5-yl)methanone] showed an AUC(0-t) [1] of 2390 ng·h/mL, a Cmax [1] of 1860 ng/mL and a Tmax [1] of 25.2 min. The “inhibitory activity on ATX enzyme in rat plasma compared with control compounds 1 and 2” value [2] was “higher inhibitory activity on ATX enzyme in rat plasma than the control compounds 1 and 2”, the IC50 [2, 12] was 6.49 nM and the “Remaining percentage (%) of compound” value ([3]; human liver microsomes) was 85.6%. It also gave a half-life at 1 µM ([3]; human liver microsomes) of 99 min, an IC50 [4] of 2.05 nM and a Tmax ([5]; Sprague-Dawley, rat, plasma) of 30 min. The AUC(0-t) ([5]; Sprague-Dawley, rat, plasma, read-out: AUC0-t) was 5720 ng·h/mL, the Cmax ([5]; Sprague-Dawley, rat, plasma, read-out: Cmax) was 3180 ng/mL and the “inhibitory effect on ATX enzyme in human plasma compared with control compounds 1 and 2” value [6] was “higher inhibitory effect on ATX enzyme in human plasma than the control compounds 1 and 2”. The IC50 [6] was 8.73 nM, the AUC(0-t) [7] was 17600 ng·h/mL and the Cmax [7] was 3670 ng/mL. For the same compound, the Tmax [7] was 70.2 min, the IC50 [8] was 7930 nM and the “hERG IC50/ATX IC50” value [9] was 7.93/2.05 = 3.87.

For `Cc1ccc(=O)n(-c2ccccc2)c1` [Pirfenidone], the “probability of discontinuation due to serious adverse events” value [10] is given as 20.9%.

With `O=C(COCCc1cnn[nH]1)N1Cc2cnc(NC3Cc4ccccc4C3)nc2C1` [Control compound 1, reference compound] the AUC(0-t) [1] was 2570 ng·h/mL, the Cmax [1] was 1500 ng/mL and the Tmax [1] was 15 min. The IC50 [2] was 13.6 nM, the “Remaining percentage (%) of compound” value ([3]; human liver microsomes) was 41.2% and the half-life at 1 µM ([3]; microsomes) was 24.1 min. It also gave a Tmax ([5]; Sprague-Dawley, rat, plasma) of 25.2 min, an AUC(0-t) [5] of 4874 ng·h/mL and a Cmax [5] of 2591 ng/mL. It also gave an AUC(0-t) [7] of 10100 ng·h/mL, a Cmax [7] of 2390 ng/mL and a Tmax [7] of 60 min. It also gave an IC50 [8] of 6690 nM, a solubility ([11]; FaSSGF solution, fassgf or other biorelevant, FaSSGF pH 1.6, overnight at room temperature, read-out: Solubility, FaSSGF (pH 1.6)) of 66.5 µg/mL (≈ 164 µM) and a solubility ([11]; FeSSIF solution, FeSSIF pH 5.8, overnight at room temperature, read-out: Solubility, FeSSIF (pH 5.8)) of 18.3 µg/mL (≈ 45.1 µM). It also gave a solubility ([11]; phosphate buffer (PBS), aqueous buffer, PBS pH 7.4, overnight at room temperature, read-out: Solubility, PBS (pH 7.4)) of 6.3 µg/mL (≈ 15.5 µM).
